The values that follow come from paper PMC8770581 (ChemMedChem, 2021).

For one data set, the target named is α-syn fibrils (Homo sapiens, UniProt P37840). The data set can be described thus: α-Synuclein fibril/ligand saturation binding assay.
Data set [1] is described as follows: Absorption/emission maxima and fluorescence quantum yield of free ligand in PBS. Format: physicochemical. The settings on record: free ligand in PBS.
Setting [2] is: Kd α-syn, Table 1, synthetic α-syn fibrils 2.5 μM, 1 hour, mean ± SD (n = 3).
The mark [3] stands for this setting: Kd α-syn (reported as no binding), α-syn fibrils, saturation binding.

As to `O=C1C(=C/C=C/c2ccc(F)cc2)C(=O)c2ccccc21` [compound 18, (E)-2-(3-(4-Fluorophenyl)allylidene)-1H-indene-1,3(2H)-dione], on α-syn fibrils (setting [2]), the Kd is > 2000 nM. Besides, in data set [1], the Absmax came out at 332 and the Emmax is given as 421.

`CN(C)c1ccc(C=CC=C2C(=O)Oc3ccccc3C2=O)cc1` [compound 26, 3-(3-(4-(Dimethylamino)phenyl)allylidene)chromane-2,4-dione] gave a Kd on α-syn fibrils (setting [2]) of 119 ± 21.1 nM. Besides, in data set [1], the Absmax is given as 440 and the Emmax stood at 657.

Compound `O=C1C(=C/C=C/c2ccc([N+](=O)[O-])cc2)C(=O)c2ccccc21` [compound 22, (E)-2-(3-(4-Nitrophenyl)allylidene)-1H-indene-1,3(2H)-dione] yielded a Kd at α-syn fibrils (setting [2]) of 1330 ± 182 nM. In data set [1], this compound gave an Absmax of 336 and an Emmax of 460.

Regarding `O=C1C(=CC2=C(Cl)c3ccccc3CC2)C(=O)c2ccccc21` [compound 52, 2-((1-Chloro-3,4-dihydronaphthalen-2-yl)methylene)-1H-indene-1,3(2H)-dione], on α-syn fibrils (setting [2]), the Kd is > 2000 nM. In addition, in data set [1], the Absmax amounted to 354 and the Emmax is 406.

Consider “3-(3-(4-(Dimethylamino)phenyl)allylidene)chromane-2,4-dione [compound 27]”, for which, in data set [1], the Absmax was determined as 442 and the Emmax is 661.

For the compound `CN(C)c1ccc(-c2ccc(/C=C/C=C3\Cc4ccc(O)cc4C3=O)cc2)cc1` [compound 30, (E)-2-((E)-3-(4'-(Dimethylamino)-[1,1'-biphenyl]-4-yl)allylidene)-6-hydroxy-2,3-dihydro-1H-inden-1-one], in data set [1], the Absmax came out at 414 and the Emmax is 597.

In turn, `COc1cc(/C=C/C=C2\Cc3cc(F)cc(F)c3C2=O)ccc1O` [compound 14, (E)-5,7-Difluoro-2-((E)-3-(4-hydroxy-3-methoxyphenyl)allylidene)-2,3-dihydro-1H-inden-1-one] displayed a Kd at α-syn fibrils (setting [2]) of 241 ± 47.9 nM. In addition, in data set [1], the Absmax is 338 and the Emmax came out at 545.

Compound `CN(C)c1ncc(-c2ccc(/C=C3/Cc4ccc(O)cc4C3=O)s2)cn1` [compound 43, (Z)-2-((5-(2-(Dimethylamino)pyrimidin-5-yl)thiophen-2-yl)methylene)-6-hydroxy-2,3-dihydro-1H-inden-1-one] yielded a Kd at α-syn fibrils (setting [2]) of 236 ± 10.4 nM. Further, in data set [1], the Absmax was found to be 386 and the Emmax stood at 572.

In turn, `CN(C)c1ncc(-c2ccc(/C=C3/Cc4ccccc4C3=O)s2)cn1` [compound 41, (Z)-2-((5-(2-(Dimethylamino)pyrimidin-5-yl)thiophen-2-yl)methylene)-2,3-dihydro-1H-inden-1-one] gave a Kd at α-syn fibrils (setting [2]) of 272 ± 29.9 nM. Besides, in data set [1], the Absmax worked out at 410 and the Emmax turned out to be 567.

In data set [1], `O=C1/C(=C/C=C/c2ccc([N+](=O)[O-])cc2)Cc2ccccc21` [compound 10, (E)-2-((E)-3-(4-Nitrophenyl)allylidene)-2,3-dihydro-1H-inden-1-one] returned an Absmax of 336 and an Emmax of 438.

In data set [1], `N#Cc1ccc(-c2ccc(/C=C/C=C3\Cc4ccc(O)cc4C3=O)cc2)s1` [compound 33, 5-(4-((E)-3-((E)-6-Hydroxy-1-oxo-1,3-dihydro-2H-inden-2-ylidene)prop-1-en-1-yl)phenyl)thiophene-2-carbonitrile] came in with an Absmax of 398 and an Emmax of 565.

On to `O=C1C(=C/C=C/c2ccccc2)C(=O)c2ccccc21` [compound 16, (E)-2-(3-Phenylallylidene)-1H-indene-1,3(2H)-dione], for which the Kd on α-syn fibrils (setting [2]) was > 2000 nM. In data set [1], this compound returned an Absmax of 331 and an Emmax of 421.

Take `O=C1C(=Cc2coc3ccc(Br)cc3c2=O)C(=O)c2ccccc21` [compound 54, 2-((6-Bromo-4-oxo-4H-chromen-3-yl)methylene)-1H-indene-1,3(2H)-dione]: the Kd on α-syn fibrils (setting [2]) was > 2000 nM. In data set [1], this compound showed an Absmax of 336 and an Emmax of 406.

`CN(C)c1ccc(/C=C/C=C2C(=O)c3ccccc3C2=O)cc1` [compound 19, (E)-2-(3-(4-(Dimethylamino)phenyl)allylidene)-1H-indene-1,3(2H)-dione] displayed an Absmax in data set [1] of 416.

Compound `Cc1ccc2occ(/C=C3/Cc4ccc(O)cc4C3=O)c(=O)c2c1` [compound 57, (Z)-3-((6-Hydroxy-1-oxo-1,3-dihydro-2H-inden-2-ylidene)methyl)-6-methyl-4H-chromen-4-one] had a Kd at α-syn fibrils (setting [2]) of 656 ± 88 nM. In data set [1], the Absmax was found to be 326 and the Emmax turned out to be 388.

`O=C1/C(=C\c2cc(-c3ccc(CO)cc3)cs2)Cc2ccccc21` [compound 46, (Z)-2-((4-(4-(Hydroxymethyl)phenyl)thiophen-2-yl)methylene)-2,3-dihydro-1H-inden-1-one] returned a Kd on α-syn fibrils (setting [2]) of 153 ± 7.9 nM. In data set [1], this compound had an Absmax of 368 and an Emmax of 454.

Consider `O=C1/C(=C/C=C/c2ccc(Br)cc2)Cc2ccccc21` [compound 7, (E)-2-((E)-3-(4-Bromophenyl)allylidene)-2,3-dihydro-1H-inden-1-one], for which, on α-syn fibrils (setting [3]), the Kd was ≥ 2000 nM. For the same compound, on α-syn fibrils (setting [2]), the Kd is > 2000 nM. In data set [1], this compound gave an Absmax of 332 and an Emmax of 430.

The compound `O=C1/C(=C\c2ccc(-c3ccc(CO)cc3)s2)CCc2ccccc21` [compound 49, (Z)-2-((5-(4-(Hydroxymethyl)phenyl)thiophen-2-yl)methylene)-3,4-dihydronaphthalen-1(2H)-one] came in with a Kd on α-syn fibrils (setting [2]) of 162 ± 13.6 nM. Further, in data set [1], the Absmax is listed as 372 and the Emmax is given as 551.

For the compound `O=C1/C(=C/C=C/c2ccc([N+](=O)[O-])cc2)Cc2cc(F)cc(F)c21` [compound 15, (E)-5,7-Difluoro-2-((E)-3-(4-nitrophenyl)allylidene)-2,3-dihydro-1H-inden-1-one], binding at α-syn fibrils (setting [2]) was put at a Kd of 398.1 ± 3.9 nM. In data set [1], the Absmax stood at 330 and the Emmax is listed as 439.

In turn, `O=C1/C(=C\c2ccc(-c3ccc(CO)cc3)s2)Cc2ccc(O)cc21` [compound 44, (Z)-6-Hydroxy-2-((5-(4-(hydroxymethyl)phenyl)thiophen-2-yl)methylene)-2,3-dihydro-1H-inden-1-one] showed a dissociation constant Kd on α-syn fibrils (setting [2]) of 134 ± 19.2 nM. In data set [1], this compound came in with an Absmax of 412 and an Emmax of 545.

As to `O=C1/C(=C\c2cc(-c3cccnc3)cs2)Cc2ccccc21` [compound 47, (Z)-2-((4-(Pyridin-3-yl)thiophen-2-yl)methylene)-2,3-dihydro-1H-inden-1-one], the Kd at α-syn fibrils (setting [2]) was 333 ± 28.3 nM. In data set [1], this compound came in with an Absmax of 340 and an Emmax of 404.

As for `O=C1/C(=C/C=C/c2ccc(-c3ccc(CO)cc3)cc2)Cc2ccc(O)cc21` [compound 31, (E)-6-Hydroxy-2-((E)-3-(4'-(hydroxymethyl)-[1,1'-biphenyl]-4-yl)allylidene)-2,3-dihydro-1H-inden-1-one], the affinity on α-syn fibrils (setting [2]), expressed as Kd, was 126 ± 5 nM. In data set [1], this compound displayed an Absmax of 368 and an Emmax of 540.

`O=C1/C(=C/C=C/c2ccc(Br)cc2)Cc2ccc(O)cc21` [compound 11, (E)-2-((E)-3-(4-Bromophenyl)allylidene)-6-hydroxy-2,3-dihydro-1H-inden-1-one]: the Kd at α-syn fibrils (setting [3]) is ≥ 2000 nM. For the same compound, the Kd at α-syn fibrils (setting [2]) was > 2000 nM. In data set [1], the Absmax came out at 335 and the Emmax is listed as 429.

The compound `Nc1cccc(-c2ccc(/C=C3/Cc4ccccc4C3=O)s2)c1` [compound 38, (Z)-2-((5-(3-Aminophenyl)thiophen-2-yl)methylene)-2,3-dihydro-1H-inden-1-one] came in with a Kd at α-syn fibrils (setting [2]) of 160 ± 10 nM. In data set [1], this compound returned an Absmax of 408 and an Emmax of 563.

Turning to `COc1cc(-c2ccc(/C=C3/CCc4ccccc4C3=O)s2)ccc1O` [compound 50, (Z)-2-((5-(4-Hydroxy-3-methoxyphenyl)thiophen-2-yl)methylene)-3,4-dihydronaphthalen-1(2H)-one], the Kd on α-syn fibrils (setting [2]) turned out to be 111 ± 7.8 nM. In data set [1], this compound showed an Absmax of 417 and an Emmax of 596.

In the case of `O=C1C(=C/C=C/c2ccc(Br)cc2)C(=O)c2ccccc21` [compound 17, (E)-2-(3-(4-Bromophenyl)allylidene)-1H-indene-1,3(2H)-dione], the Kd on α-syn fibrils (setting [2]) is > 2000 nM. Also, in data set [1], the Absmax came to 328 and the Emmax turned out to be 419.

Turning to `O=C(O)c1ccc(-c2ccc(/C=C/C=C3C(=O)c4ccccc4C3=O)cc2)cc1` [compound 34, (E)-4'-(3-(1,3-Dioxo-1,3-dihydro-2H-inden-2-ylidene)prop-1-en-1-yl)-[1,1'-biphenyl]-4-carboxylic acid], binding at α-syn fibrils (setting [2]) was put at a Kd of 1430 ± 46.8 nM. Further, in data set [1], the Absmax was found to be 358 and the Emmax came to 409.

On to `CN(C)c1ccc(C=CC=C2C(=O)Oc3ccc(Br)cc3C2=O)cc1` [compound 28, 6-Bromo-3-(3-(4-(dimethylamino)phenyl)allylidene)chromane-2,4-dione], for which the Kd is ≥ 2000 nM on α-syn fibrils (setting [3]) and > 2000 nM on α-syn fibrils (setting [2]). The Absmax in data set [1] was found to be 405.

`COc1cc(/C=C/C=C2C(=O)c3ccccc3C2=O)cc(OC)c1O` [compound 21, (E)-2-(3-(4-Hydroxy-3,5-dimethoxyphenyl)allylidene)-1H-indene-1,3(2H)-dione]: the Kd on α-syn fibrils (setting [2]) was 268 ± 11.7 nM. In data set [1], this compound displayed an Absmax of 434 and an Emmax of 450.

Turning to `COc1cc(C=CC=C2C(=O)Oc3ccccc3C2=O)ccc1O` [compound 25, 3-(3-(4-Hydroxy-3-methoxyphenyl)allylidene)chromane-2,4-dione], the Kd on α-syn fibrils (setting [2]) is 116.3 ± 0.7 nM. In data set [1], this compound returned an Absmax of 490 and an Emmax of 621.

Consider `CN(C)c1ccc(/C=C/C=C2\Cc3ccc(O)cc3C2=O)cc1` [compound 12, (E)-2-((E)-3-(4-(Dimethylamino)phenyl)allylidene)-6-hydroxy-2,3-dihydro-1H-inden-1-one], for which the equilibrium dissociation constant (Kd) on α-syn fibrils (setting [2]) came out at 203 ± 15.9 nM. In data set [1], this compound yielded an Absmax of 406 and an Emmax of 614.
